Source: patent publication US8492396B2, “Therapeutic uses of adrenergic α-1 receptor antagonists” (SANOFI, priority 2007, dated 2013)

What was measured:
[1] = tested on: strips of rat urinary bladder; assay: eNANC contractile response to electrical field stimulation in isolated urinary bladder strips from CYP-treated rats; format: in vivo; conditions: intravenous pretreatment 30 μg/kg; bladders taken 48 h after CYP 150 mg/kg i.p.
Procedure: Male Sprague-Dawley rats and Swiss mice were administered with CYP (150 mg/kg, i.p.) or its vehicle (0.9% NaCl) for cystitis induction. 48 hours later urinary bladders were removed and placed in an organ bath for motor response measurement. Writhing behaviors and plasma protein extravasation were investigated 90 min after the CYP administration. Strips of rat urinary bladder were taken from terminally anesthetized animals and mounted in organ baths and after an equilibration period the eNANC contractile response to electrical field stimulation (EFS, 5 Hz, 1 ms width, 10 V) in the absence and presence of atropine (1 μM) is studied (Rigoni et al., 2003, Br J Pharmacol, 138, 977-85) The contraction produced by EFS in these experimental conditions is entirely mediated by SP and NKA released from terminals of primary sensory neurons. The eNANC response to EFS was reproducible at 60 min intervals. The effect of alfuzosin or its vehicle on the eNANC response to EFS was studied in parallel experiments. At the beginning or end of each experiment tissues were challenged with carbachol (1 μM). The effect of alfuzosin was studied also in bladder strips obtained from rats treated with cyclophosphamide. […]

mice = assay: writhings evoked by intraperitoneal acetic acid in CYP-treated mice; format: in vivo; conditions: pre-treatment 30 μg/kg i.v., CYP 150 mg/kg i.p.
Procedure: Male Sprague-Dawley rats and Swiss mice were administered with CYP (150 mg/kg, i.p.) or its vehicle (0.9% NaCl) for cystitis induction. 48 hours later urinary bladders were removed and placed in an organ bath for motor response measurement. Writhing behaviors and plasma protein extravasation were investigated 90 min after the CYP administration.

[2] = tested on: urinary bladder taken from CYP-treated rats; assay: contractile response to capsaicin in urinary bladder taken from CYP-treated rats; format: in vivo, rat; conditions: pretreatment with alfuzosin; bladders from CYP-treated rats
Procedure: Male Sprague-Dawley rats and Swiss mice were administered with CYP (150 mg/kg, i.p.) or its vehicle (0.9% NaCl) for cystitis induction. 48 hours later urinary bladders were removed and placed in an organ bath for motor response measurement. Writhing behaviors and plasma protein extravasation were investigated 90 min after the CYP administration. […] The eNANC response to EFS was reproducible at 60 min intervals. The effect of alfuzosin or its vehicle on the eNANC response to EFS was studied in parallel experiments. At the beginning or end of each experiment tissues were challenged with carbachol (1 μM). The effect of alfuzosin was studied also in bladder strips obtained from rats treated with cyclophosphamide.

urinary bladder = assay: CYP-evoked plasma protein extravasation (Evans blue) in urinary bladder; format: in vivo; conditions: CYP 150 mg/kg i.p., 90 min after CYP; ruthenium red 4 mg/kg s.c.; camphor 50 μmol/kg i.p.
Procedure: Male Sprague-Dawley rats and Swiss mice were administered with CYP (150 mg/kg, i.p.) or its vehicle (0.9% NaCl) for cystitis induction. 48 hours later urinary bladders were removed and placed in an organ bath for motor response measurement. Writhing behaviors and plasma protein extravasation were investigated 90 min after the CYP administration. Intraperitoneal administration of cyclophosphamide (150 mg/kg, 48 h before) is known to decrease bladder capacity and increased micturition frequency (Maggi et al., 1992, J Auton Nerv Syst, 38, 201-8). These effects of cyclophosphamide were abolished in rats pretreated with capsaicin as adults (Maggi et al., 1992, J Auton Nerv Syst, 38, 201-8). Thus, the inflammatory responses to cyclophosphamide are mediated by neurogenic inflammatory mechanisms. Evans blue dye was used to measure plasma extravasation. The proinflammatory stimulus was given immediately after the injection of the dye (30 mg/kg i.v. over 5 s) in the jugular vein. The chest was opened 10 min or at different time intervals as required after the injection of Evans blue and the animal perfused for 3 min with a phosphate buffer. The urinary bladder, urethra and prostate were removed, blotted and weighed. […] The amount of Evans blue extravasated from the […] was measured using a spectrophotometer and expressed as ng/mg of wet weight.

SMILES	reversal of CYP-induced reduction of the contractile response to EFS (eNANC, in the presence of atropine) [1]	reduction of the CYP-induced increase in number of writhings evoked by acetic acid (mice)	reversal of CYP-induced reduction of the contractile response to capsaicin [2]	CYP-evoked plasma protein extravasation in urinary bladder (urinary bladder)
COc1cc2nc(N(C)CCCNC(=O)C3CCCO3)nc(N)c2cc1OC (centres unmarked) [alfuzosin]	> 50 % of reversal	48 % of reduction	~50 % of reversal	
CC12CCC(CC1=O)C2(C)C (centres unmarked) [camphor]				completely prevented
N.N.N.N.N.N.N.N.N.N.N.N.N.N.[Cl-].[Cl-].[Cl-].[Cl-].[Cl-].[Cl-].[O-2].[O-2].[Ru+3].[Ru+3].[Ru+4] [ruthenium red]				completely prevented
